Key:
adult neural stem cell = conditions: in vitro and in vivo; cited from earlier work
[1] = system: PE cells / in vitro maturing beta cells; test: RNA / gene expression levels of endocrine progenitor and beta cell markers; format: cell-based
Description: FIG. 3: Early exposure of PE cells to Isx9 increases gene expression levels of endocrine progenitors as well as mature beta cell markers. A: Scheme of the protocol setup. B: Early exposure of PE cells to Isx9 (6 μM) for 2-6 days (condition 3) increases RNA expression levels of Ngn3, Nkx2.2 and NeuroD1 at D13 of differentiation, as compared to DMSO exposure (condition 1). The increase of Nkx2.2 RNA expression levels is maintained at D23 of differentiation when in vitro maturing beta cells are exposed to Isx9 (6 uM) in a two-step protocol (condition 4). Controls are represented by primary human islets. First bar of each pair is 2 mM and second bar is at 20 mM. Frozen PE cells were thawed and cultured for 1 day in I medium containing 10 U/mL DNase I in ULA 6WP flat-bottomed plates. The PE cells were subsequently transferred to S3 BASE medium (MCDB131, 8 mM D-glucose, 1.23 g/L NaHCO3, 2% FFA BSA, 1:200 ITX-X, 2 mM glutamax, 100×PS and 0.25 mM vitamin C) containing 50 ng/mL KGF, 0.25 μM Sant1, 100 nM RA and 10 μM Y and cultured for a further 2 days. The resulting cells were then cultured for 4 days using an air-liquid interface culture protocol in Transwell plates. The culture was carried out in S5 BASE medium (MCDB131, 20 mM D-glucose, 1.754 g/L NaHCO3, 2% FFA BSA, 1:200 ITX-X, 2 mM glutamax, 100×PS, 0.25 mM vitamin C and […] heparin) containing 100 nM RA, 1 μM XXI, 0.25 μM Sant1, 10 μM Alk5i II, 1 μM T3, 20 ng/mL beta-cellulin, 10 μM Y and 6 μM isoxazole 9 (ISX-9). Subsequently, the medium was exchanged for S5 BASE medium containing 25 nM RA, 1 μM XXI, 10 μM Alk5i II, 1 μM T3, 20 ng/mL beta-cellulin and 10 μM Y and the cells were cultured for a further 3 days. ISX-9 was not present in this medium. Finally, the medium was exchanged for S6 BASE medium (CMRL 1066, 10% FBS and 100×PS) containing 10 μM Alk5i II, 1 μM T3 and 10 μM Y and the cells were cultured for a further 15 days. ISX-9 was added to this medium at a concentration of 6 μM for the final 14 days of culture (i.e. the first day of culture in this step was carried out in the absence of ISX-9).

maturing beta cells = test: Analysis of the cell composition of the maturing beta cells (insulin positive cells); format: cell-based; conditions: Isx9 added
Source text: FIG. 7: FACS sorting of cells
(§1) Moreover, culturing the PE cells in suspension or in transwell culture systems in presence of Isx9 is showing the same effect of improved glucose-dependent insulin response as shown in FIG. 5 and FIG. 6. […] Both markers are critical for mediating the response of insulin secretion mediated by glucose. The expression of MAFA can also be unprecedently detected by immunohistochemistry as early as at D9 of differentiation as shown in FIG. 7.

MAFA = MAFA detection by immunohistochemistry; format: cell-based; conditions: as early as at D9 of differentiation; FIG. 7
Source text: as §1

human cadaveric islets = conditions: islets that produced low levels of insulin due to prolonged culture; cited from earlier work
[2] = system: iPSC-derived maturing beta cells; test: In vitro glucose-stimulated insulin secretion test; format: cell-based
Description: FIG. 2: Exposure of PE cells to Isx9 induces glucose response properties to the cells. A: Scheme of the protocol setup. Maturing beta cells have been exposed to DMSO or Isx9 (6 μM) for 13 days, 7 days or 2 days during the maturation step. B: In vitro glucose-stimulated Insulin secretion test have been performed to measure secretion of Insulin in each condition (No Isx9, 13 days Isx9, 7 days Isx9 or 2 days Isx9) induced by low glucose concentration (2 mM) or high glucose concentration (20 mM). The stimulation index of Insulin secretion is determined between the 2 concentrations of glucose on the y axis. FIG. 4: Exposure of PE cells to Isx9 in two-steps increases glucose response properties to the cells. A: Scheme of the protocol setup. In a first step, PE cells have been exposed to DMSO (condition 1) or Isx9 (6 μM) for 2-6 days (condition 2). In a second step, maturing beta cells have been exposed to DMSO (condition 3) or Isx9 (6 uM) for 10 days (condition 4). B: In vitro glucose-stimulated Insulin secretion test have been performed to measure secretion of Insulin in each condition, induced by low glucose concentration (2 mM) or high glucose concentration (20 mM). The stimulation index of Insulin secretion is determined between the 2 concentrations of glucose on they axis. In order from left to right: NKX6.1, Pdx1, NGN3, NKX2-2, NeuroD1. Frozen PE cells were thawed and cultured for 1 day in I medium containing 10 U/mL DNase I in ULA 6WP flat-bottomed plates. The PE cells were subsequently transferred to S3 BASE medium (MCDB131, 8 mM D-glucose, 1.23 g/L NaHCO3, 2% FFA BSA, 1:200 ITX-X, 2 mM glutamax, 100×PS and 0.25 mM vitamin C) containing 50 ng/mL KGF, 0.25 μM Sant1, 100 nM RA and 10 μM Y and cultured for a further 2 days. The resulting cells were then cultured for 4 days using an air-liquid interface culture protocol in Transwell plates. […]

PE cells = test: Dose response test: toxicity and morphology of PE cell aggregates in culture with increasing doses of Isx9; format: cell-based; conditions: FIG. 1
Description: FIG. 1: Morphological analysis of PE cells in culture with increasing doses of Isx9. PE cells were cultured in suspension without Isx9 (DMSO control carrier), and with increasing concentrations of Isx9 (6 μM, 12 μM, 24 μM, 48 μM and 60 μM) for 4 days and 8 days. 5× and 10× magnification pictures have been collected for each condition and time point.
Dose response tests have been performed to determine toxicity of Isx9 and the optimal concentration of Isx9 to be tested for beta cell differentiation in vitro. High concentrations of Isx9 (from 24 μM up to 60 μM) appears to be toxic as the aggregates of PE cells become cystic after 8 days in culture as shown in FIG. 1. In contrast, the morphology of the aggregates of PE cells is unchanged as compared to the control DMSO condition when using 6 and 12 μM of Isx9. In order to maintain physiological condition, a concentration of 6 μM of Isx9 has been used for the entire protocol. Exposure of maturing beta cells to Isx9 for 13 days is increasing the glucose-stimulated insulin secretion of the cells as compared to the control DMSO condition (FIG. 2). This effect is correlated with the duration of exposure to Isx9 at 6 uM. […] Isx9 induces an increase in RNA expression levels of endocrine markers such as Ngn3, but also beta cell markers as NeuroD1 and Nkx2.2.

[3] = Isx9 6 μM early exposure of PE cells for 2-6 days vs DMSO, D13 of differentiation, FIG. 3

Question: With `O=C(NC1CC1)c1cc(-c2cccs2)on1` [Isx9, Isoxazole 9] as the molecule, how does the “adult neural stem cell differentiation” value (adult neural stem cell) read?
Answer: induce

Question: And the “RNA expression level of NeuroD1” value [1, 3]?
Answer: increases

Question: And the “RNA expression level of Ngn3” value [1, 3]?
Answer: increases

Question: What about the “RNA expression level of Nkx2.2” value [1, 3] of the same molecule?
Answer: increases

Question: What about the “increase of Nkx2.2 RNA expression levels at D23” value ([1]; Isx9 6 uM two-step protocol (condition 4), D23 of differentiation, FIG. 3) of the same molecule?
Answer: maintained

Question: And the “MAFA gene expression level” value ([1]; in presence of Isx9)?
Answer: increase

Question: What about the “PCSK1 gene expression level” value ([1]; in presence of Isx9) of the same molecule?
Answer: increase

Question: What about the “number or quantity of insulin positive cells as compared to DMSO” value (maturing beta cells) of the same molecule?
Answer: does not receal an increase

Question: What about the “expression of MAFA by immunohistochemistry” value (MAFA) of the same molecule?
Answer: detected

Question: And the “expression and secretion of insulin” value (human cadaveric islets)?
Answer: increase

Question: What about the “effect of Isx9 on glucose response when added in a first step at the PE cell stage (two-step protocol)” value ([2]; Isx9 6 μM, first step 2-6 days at PE stage, second step 10 days, FIG. 3 and FIG. 4) of the same molecule?
Answer: reinforced

Question: What about the glucose-dependent insulin response ([2]; PE cells cultured in suspension or in transwell culture systems in presence of Isx9, FIG. 5 and FIG. 6) of the same molecule?
Answer: improved

Question: And the “glucose-stimulated insulin secretion of the cells as compared to the control DMSO condition” value ([2]; maturing beta cells exposed to Isx9 6 μM for 13 days, 2 mM vs 20 mM glucose, effect correlated with duration of exposure, FIG. 2)?
Answer: increasing

Question: What about the “morphology of the aggregates of PE cells as compared to the control DMSO condition” value (PE cells; 6 and 12 μM of Isx9) of the same molecule?
Answer: unchanged

Question: What about the “toxicity (aggregates of PE cells become cystic)” value (PE cells; high concentrations, from 24 μM up to 60 μM, after 8 days in culture) of the same molecule?
Answer: toxic

From US20190169574A1, “IN VITRO PRODUCTION OF PANCREATIC BETA CELLS” (NESTEC S.A., priority 2016, published 2019)
